{
  "source": "the PolyMetriX glass transition set",
  "note": "± gives the standard deviation of the reports.",
  "data": [
    {"units": {"glass transition temperature": "°C"}, "values": [
      {"smiles": "*CC(*)C(=O)OCCC(F)(F)C(F)(F)C(F)(F)C(F)(F)C(F)(F)C(F)(F)F", "note": "(repeat unit)", "glass transition temperature": -12.00},
      {"smiles": "*CC(*)Cc1ccc(C)cc1", "note": "(repeat unit)", "glass transition temperature": 65.00},
      {"smiles": "*C(=O)OCCN(CCOC(=O)c1ccc2c(c1)C(=O)N(c1cccc(N3C(=O)c4ccc(*)cc4C3=O)c1)C2=O)c1ccc(/N=N/c2ccc(C)cc2)cc1", "note": "(repeat unit)", "glass transition temperature": 171.00},
      {"smiles": "*c1ccc(-c2ccc(N3C(=O)c4ccc(-c5cccc6c5C(=O)N(*)C6=O)cc4C3=O)cc2C(F)(F)F)c(C(F)(F)F)c1", "note": "(repeat unit)", "glass transition temperature": 346.00},
      {"smiles": "*c1ccc(-c2ccc3nc(Oc4cc(-c5ccccc5)c5cc(*)ccc5n4)cc(-c4ccccc4)c3c2)cc1", "note": "(repeat unit)", "glass transition temperature": 300.00},
      {"smiles": "*c1ccc(Oc2ccc(C(C)(C)c3ccc(Oc4ccc(N5C(=O)c6ccc(-c7ccc8c(c7)C(=O)N(*)C8=O)cc6C5=O)cc4)cc3)cc2)cc1", "note": "(repeat unit)", "glass transition temperature": "237.50 ± 15"},
      {"smiles": "*CCCCCCCCCCCN1C(=O)c2ccc(Oc3ccc4c(c3)C(=O)N(*)C4=O)cc2C1=O", "note": "(repeat unit)", "glass transition temperature": 74.00},
      {"smiles": "*c1ccc(N(c2ccc(C#N)cc2)c2ccc(-n3c(=O)c4cc5c(=O)n(*)c(=O)c5cc4c3=O)cc2)cc1", "note": "(repeat unit)", "glass transition temperature": 353.00},
      {"smiles": "*Oc1ccc(CC(NC(=O)CCc2ccc(OC(=O)CCCCC(*)=O)cc2)C(=O)OC)cc1", "note": "(repeat unit)", "glass transition temperature": 70.00},
      {"smiles": "*C(=O)Oc1ccc(OC(=O)c2ccc3c(c2)C(=O)N(c2ccc(Oc4ccc(Oc5ccc(N6C(=O)c7ccc(*)cc7C6=O)cc5)cc4)cc2)C3=O)cc1", "note": "(repeat unit)", "glass transition temperature": 230.00},
      {"smiles": "*Oc1ccc(C(C)(C)c2ccc(OC(=O)C3CCC(C(*)=O)CC3)cc2)cc1", "note": "(repeat unit)", "glass transition temperature": 150.00},
      {"smiles": "*CC(*)c1cccs1", "note": "(repeat unit)", "glass transition temperature": 71.00},
      {"smiles": "*Oc1ccc(C(C)(C)c2ccc(OC(=O)c3ccc(C(c4ccc(C(*)=O)cc4)(C(F)(F)F)C(F)(F)F)cc3)cc2)cc1", "note": "(repeat unit)", "glass transition temperature": 124.00},
      {"smiles": "*CC(*)(C)C(=O)OCCN(CC)c1ccc(/N=N/c2ccc(S(C)(=O)=O)cc2)cc1", "note": "(repeat unit)", "glass transition temperature": 144.00},
      {"smiles": "*CCCCCCCCN1C(=O)c2ccc(-c3ccc(-c4ccc5c(c4)C(=O)N(*)C5=O)cc3)cc2C1=O", "note": "(repeat unit)", "glass transition temperature": 120.00},
      {"smiles": "*CC/C=C(/*)Cl", "note": "(repeat unit) [Polychloroprene ]", "glass transition temperature": "-48 ± 18"},
      {"smiles": "*CC(O)COC(=O)CCCCCCCCC(=O)OCC(O)COc1ccc(C(C)(C)c2ccc(O*)cc2)cc1", "note": "(repeat unit)", "glass transition temperature": 30.00},
      {"smiles": "*C1CCC(CC2CCC(N3C(=O)c4ccc(Oc5ccc6c(c5)C(=O)N(*)C6=O)cc4C3=O)CC2)CC1", "note": "(repeat unit)", "glass transition temperature": 240.00},
      {"smiles": "*CCN(CCOC(=O)Nc1ccc(C)c(NC(=O)O*)c1)c1ccc(/N=N/c2ccc(B(c3c(C)cc(C)cc3C)c3c(C)cc(C)cc3C)cc2)cc1", "note": "(repeat unit)", "glass transition temperature": 159.00},
      {"smiles": "*C(=O)Oc1ccc2ccc(OC(=O)c3ccc4c(c3)C(=O)N(c3ccc(Oc5ccc(N6C(=O)c7ccc(*)cc7C6=O)cc5)cc3)C4=O)cc2c1", "note": "(repeat unit)", "glass transition temperature": 246.00},
      {"smiles": "*CC(*)c1cc(C(=O)OC)ccc1-c1ccc(OCCCCCCCC)cc1", "note": "(repeat unit)", "glass transition temperature": 126.00},
      {"smiles": "*c1nc2cc(S(=O)(=O)c3ccc4oc(C5CCC(*)CC5)nc4c3)ccc2o1", "note": "(repeat unit)", "glass transition temperature": 296.00},
      {"smiles": "*CC(*)(C)C(=O)OCCC(F)(F)C(F)(F)C(F)(F)C(F)(F)F", "note": "(repeat unit)", "glass transition temperature": 23.00},
      {"smiles": "*C(=O)c1ccc2c(c1)C(=O)N(c1cc(-c3nc4ccccc4[nH]3)cc(N3C(=O)c4ccc(*)cc4C3=O)c1)C2=O", "note": "(repeat unit)", "glass transition temperature": 197.00},
      {"smiles": "*OC(COC(=O)c1c(F)c(F)c(-c2c(F)c(F)c(C(*)=O)c(F)c2F)c(F)c1F)COc1ccc(/N=N/c2ccc(C#N)cc2)cc1", "note": "(repeat unit)", "glass transition temperature": 112.00},
      {"smiles": "*Oc1ccc(C(C)(C)c2ccc(OC(=O)OCC3CCC(COC(*)=O)CC3)cc2)cc1", "note": "(repeat unit)", "glass transition temperature": 90.40},
      {"smiles": "*CC(*)(C)C(=O)OCCCCCCOc1ccc2cc(C(=O)Oc3ccccc3)ccc2c1", "note": "(repeat unit)", "glass transition temperature": 39.00},
      {"smiles": "*c1ccc(-c2cc(-c3ccc(OCCCCCC)cc3)cc(-c3ccc(-c4ccc5c(c4)C(CCCCCC)(CCCCCC)c4cc(*)ccc4-5)cc3)c2-c2ccc(OCCCCCC)cc2)cc1", "note": "(repeat unit)", "glass transition temperature": 118.00},
      {"smiles": "*CC(CC(Cl)(Cl)Cl)O*", "note": "(repeat unit)", "glass transition temperature": -36.00},
      {"smiles": "*Oc1cccc(OC(=O)c2ccc(C(C)(C)c3ccc(C(*)=O)cc3)cc2)c1", "note": "(repeat unit)", "glass transition temperature": 158.00},
      {"smiles": "*CCCCCCCC(=O)OC1COC(*)OC1", "note": "(repeat unit)", "glass transition temperature": 6.50},
      {"smiles": "*c1cccc(Oc2ccc(C(c3ccc(Oc4cccc(-n5c(=O)c6cc7c(=O)n(*)c(=O)c7cc6c5=O)c4)cc3)(C(F)(F)F)C(F)(F)F)cc2)c1", "note": "(repeat unit)", "glass transition temperature": "226.50 ± 12"},
      {"smiles": "*c1ccc(Oc2ccc3ccccc3c2-c2c(Oc3ccc(N4C(=O)c5ccc(NC(=O)Nc6ccc(Oc7ccccc7-c7ccccc7Oc7ccc(NC(=O)Nc8ccc9c(c8)C(=O)N(*)C9=O)cc7)cc6)cc5C4=O)cc3)ccc3ccccc23)cc1", "note": "(repeat unit)", "glass transition temperature": 285.00},
      {"smiles": "*CC(*)c1ccc(C(C)(C)C)cc1", "note": "(repeat unit) [Poly(p-t-butyl styrene)]", "glass transition temperature": "129 ± 5.6"},
      {"smiles": "*c1ccc(Oc2ccc(N3C(=O)c4ccc(Oc5ccc6cc(Oc7ccc8c(c7)C(=O)N(*)C8=O)ccc6c5)cc4C3=O)cc2)cc1", "note": "(repeat unit)", "glass transition temperature": 249.00},
      {"smiles": "*c1ccc(Oc2c(C)cc(Cc3cc(C)c(Oc4ccc(N5C(=O)c6ccc(-c7ccc8c(c7)C(=O)N(*)C8=O)cc6C5=O)cc4)c(C)c3)cc2C)cc1", "note": "(repeat unit)", "glass transition temperature": 310.00},
      {"smiles": "*Oc1ccc(CC(NC(=O)CCc2ccc(OC(=O)CCC(C)CC(*)=O)cc2)C(=O)OCc2ccccc2)cc1", "note": "(repeat unit)", "glass transition temperature": 55.00},
      {"smiles": "*C(=O)Nc1cccc(NC(=O)c2ccc3c(c2)C(=O)N(c2ccc(Oc4ccc(C5(c6ccc(Oc7ccc(N8C(=O)c9ccc(*)cc9C8=O)cc7)cc6)NC(=O)c6ccccc65)cc4)cc2)C3=O)c1", "note": "(repeat unit)", "glass transition temperature": 328.00},
      {"smiles": "*c1ccc2c(c1)C(=O)N(c1cccc(C(=O)Nc3ccc(C(c4ccc(NC(=O)c5cccc(N6C(=O)c7ccc(C(*)(C(F)(F)F)C(F)(F)F)cc7C6=O)c5C)cc4)(C(F)(F)F)C(F)(F)F)cc3)c1C)C2=O", "note": "(repeat unit)", "glass transition temperature": 250.00},
      {"smiles": "*CC(COc1ccc(C(C)(C)c2ccc(O*)cc2)cc1)OC(C)=O", "note": "(repeat unit)", "glass transition temperature": 60.00},
      {"smiles": "*CC(*)(C)C(=O)OCCCCn1c2ccccc2c2cc(/N=N/c3ccc([N+](=O)[O-])cc3[N+](=O)[O-])ccc21", "note": "(repeat unit)", "glass transition temperature": 132.00},
      {"smiles": "*c1cccc(Oc2ccc(P(=O)(c3ccccc3)c3ccccc3)c(Oc3cccc(N4C(=O)c5ccc(Oc6ccc7c(c6)C(=O)N(*)C7=O)cc5C4=O)c3)c2)c1", "note": "(repeat unit)", "glass transition temperature": 212.00},
      {"smiles": "*CCCOCCCCOCCCN1C(=O)c2ccc(C(=O)Oc3ccc4cc(OC(=O)c5ccc6c(c5)C(=O)N(*)C6=O)ccc4c3)cc2C1=O", "note": "(repeat unit)", "glass transition temperature": 68.00}
    ]}
  ]
}
